{"source": "patent US20080206364A1", "about": "“Topical nitric oxide as a treatment of autoimmune diseases” (Nitric Biotherapeutics, Inc., priority 2006, published 2008)", "key": {"psoriatic lesions": {"tested_on": "psoriatic lesions", "test": "Psoriasis study, one volunteer, NO delivered to right foot in plastic boot", "type": "in vivo, human", "conditions": "300 ppm", "protocol": "Experiments were conducted using one volunteer who suffers from psoriasis. The subject had psoriasis on their arms, legs and feet, all of which is itchy and painful. At the time of the study, the volunteer was using a medicated cream called DOVOBET on the arms and legs. The subject stopped using the medicated cream on the legs and feet prior to the NO treatments described herein.\nTreatments were administered to the subject's right foot, as it appeared to have been affected the most by psoriasis. […] Around the ankle were small red blotches that spread all of the way up the leg. The small blotches were slightly raised and appeared to be inflamed.\nThe subject's foot was placed into a large plastic boot, which was lightly secured with VELCRO straps halfway up the calf. A tube coming out of the top of the plastic boot was unaltered, and the second tube was sealed off using a plastic clamp. A NO line capable of delivering NO at 300 ppm, 250 cc per minute, was screwed into the bottom tubing closest to the ankle using a plastic screw. A pin was used to pick several holes in the bottom of the plastic boot to allow the NO to flow through the boot. NO was then administered to the boot, and therefore, the psoriatic lesions, at 300 ppm for 180 minutes per day over six consecutive days."}, "collagenase mRNA": {"tested_on": "collagenase mRNA", "test": "mRNA expression for collagenase following exposure to gNO", "type": "cell-based", "conditions": "200 ppm gNO, 24 and 48 hours, with increasing exposure time", "source_text": "Witte M B, et al, (2002) Nitric oxide enhances […] wound healing in diabetes, Br J Surg., 89:1594-601. Thus, Applicants believe that NO may upregulate expression of both collagenase (MMP-1) and gelatinase (MMP-2), which may be important in keeping the wound clean from necrotic tissue while not prolonging the inflammatory phase."}, "[1]": {"tested_on": "leg ulcer induced by an autoimmune disorder", "test": "Autoimmune wound patient: leg ulcer in antiphospholipid antibody syndrome, topical nitric oxide gas", "type": "in vivo, human", "source_text": "A patient was diagnosed with antiphospholipid antibody syndrome. Antiphospholipid antibody syndrome is an autoimmune disorder that mainly affects people under the age of 40. The disease causes the blood in the body to clot and is associated with a type of antibody that attacks blood platelets. Strokes, deep vein thrombosis (DVT), heart attacks, and pulmonary emboli are some of the manifestations of the disease. As a result of this syndrome, the patient had two DVT's and one pulmonary embolism.\nFollowing repetitive injury to the deep venous system, the patient developed three areas of ulceration and secondary skin breakdown on the left shin area of the leg. The wound was colonized with a variety of organisms and at times had been clinically infected. The patient had been treated with numerous types of oral and IV antibiotics over several years. Many different types of dressings had been used to control the bacteria, including silver dressings, all without success.\nThe three small ulcers continued to grow in size and then joined together to create one large ulcer (FIG. 15A). Skin grafts on two occasions deteriorated and sloughed due to repetitive infections and high bacterial burden, even with the use of hyperbaric oxygen treatment.\nWith the inability to control the bacterial burden, amputation was planned. As a rescue trial, topical nitric oxide gas was applied for eight hours per night.\nThe nitric oxide therapy was then changed to be used for 12 hours per night, using 200 ppm gNO."}, "human fibroblast cells": {"tested_on": "human fibroblast cells", "test": "Fibroblast viability study in gNO incubation chamber (morphology, cell count, proliferation)", "type": "cell-based", "protocol": "Fibroblast cells obtained from adult patients undergoing elective reconstructive surgery were cultured in Dulbeco's Modified Eagle's Medium (DMEM), supplemented with 10% fetal bovine serum (FBS) and antibiotic-antimycotic preparation and divided into ten 25 cm^2 vented culture flasks (COSTAR). Four of these flasks (treated group) were exposed to 20 or 200 ppm humidified gNO inside a specialized NO incubation chamber at 37° C. for 24 and 48 hours. The NO exposure chamber was validated prior to the study to eliminate extraneous variables and ensure optimal conditions for fibroblast cell growth. Another four flasks (control group) were placed inside conventional culture incubator and exposed only to ambient humidified air at 37° C. Two flasks were separately harvested and counted as the number of cells at zero time. Following the treatment, fibroblast cells were harvested and evaluated for morphology, cell count, capacity to proliferate and medium pH.\nCells under gNO appeared healthy and attached to the culture plates."}, "[2]": {"tested_on": "fibroblasts grown in a 3D matrix", "test": "Migration and proliferation of fibroblasts grown in a 3D matrix", "type": "cell-based", "conditions": "200 ppm NO, 8 hours per day for 3 days, vs air or conventional incubator"}, "[3]": {"tested_on": "full thickness infected wound", "test": "Histology of full thickness infected wound punch biopsies, gNO-treated vs control animals", "type": "in vivo", "conditions": "for toxic effects (cellular debris) in wound tissue: in vivo exposure, 200 ppm gNO, open wound animal model", "protocol": "FIG. 5 illustrates histology analysis of full thickness infected wound exposed to 200 ppm gNO for 24 hours.\nFIG. 5 presents histological analysis of tissue blocks prepared on wound punch biopsies from animals in NO-treated and control groups. Samples from the control group show more advanced neutrophil infiltration and so a higher degree of inflammatory reaction. […] Overall, a healthier healing process is observed in the wounds treated with gNO."}, "collagen mRNA": {"tested_on": "collagen mRNA", "test": "mRNA expression for collagen following exposure to NO", "type": "cell-based", "source_text": "Rather than applying exogenous collagenase for enzymatic debridement of necrotic tissue, exposing a wound with necrotic tissue to exogenous NO gas to upregulate endogenous collagenase may be more beneficial. When endogenous collagenase is released by the cell, it automatically releases TIMP's (tissue inhibitor of metalloproteinase). This ensures that the matrix degradation is coordinated and allows the establishment of sharp geographical boundaries of collagenolytic activity and the protection of areas of connective tissue from the activity of the enzyme. In contrast, use of exogenous collagenase material to debride a wound confers no protection to specific areas of the wound as it is active on every cell that comes in contact with it whether or not the effect is desired.\nPreferably, after the exposure of the wound to high concentration of nitric oxide gas for a first treatment period (e.g., 5-8 hours per day), the necrotic tissue may be mechanically removed easily and the concentration of nitric oxide gas can be decreased for a second treatment period. The low concentration of nitric oxide gas (e.g., at 5-20 ppm) delivered for the second treatment period may upregulate the expression of collagen mRNA leading to synthesis of new collagen to aid in the closure of the wound. […] The second treatment period may be for a period 7-16 hours per day. […]"}, "human fibroblasts": {"tested_on": "human fibroblasts", "test": "Cell attachment capacity of human fibroblasts", "type": "cell-based", "conditions": "160 ppm gNO, within 1 hour of culturing; control group the same", "protocol": "FIG. 9 illustrates cell attachment capacity of human fibroblasts following exposure to 160 ppm of gNO.\nCapability of cells to reattach to the culture plates within a specified time limit is commonly used as an indication of viability of cells in culture. Both the control and treated groups show a 70% attachment capacity within 1 hour of culturing."}, "human endothelial cells": {"tested_on": "human endothelial cells", "test": "Tube formation in human endothelial cells grown in matrigel", "type": "cell-based", "conditions": "200 ppm NO, 8 hours or 24 hours", "protocol": "Left panels at 8 hours of exposure. Right panels at 24 hours of exposure."}, "[4]": {"conditions": "after second treatment (day two)"}, "[5]": {"conditions": "after third treatment (day three)"}, "[6]": {"conditions": "200 ppm gNO, 12 hours per night, another eight weeks"}, "[7]": {"conditions": "gNO less than 200 ppm continuously for 48 hours"}}, "note": "Entries after “also recorded” stand apart in the source; their conditions may differ.", "data": [{"compound": "[N]=O", "note": "[NO, nitric oxide]", "values": [{"measurement": "appearance of the psoriasis", "setting": "psoriatic lesions; 180 min, after first treatment (day one)", "result": "no change"}, {"measurement": "white scales on the ankle", "setting": "psoriatic lesions; 180 min, after the first day", "result": "disappeared"}, {"measurement": "discolored (dark) patch of skin on inner calf", "setting": "psoriatic lesions; 180 min per day, after day two", "result": "almost gone"}, {"measurement": "physical results (psoriatic condition)", "setting": "psoriatic lesions; after fourth, fifth and sixth treatments (days 4, 5 and 6)", "result": "remain the same"}, {"measurement": "inflammation around the ankle", "setting": "psoriatic lesions; [4]", "result": "diminished slightly"}, {"measurement": "small red blotches around the ankle and up the leg", "setting": "psoriatic lesions; [4]", "result": "the same as prior to the treatment"}, {"measurement": "inflammation around the ankle", "setting": "psoriatic lesions; [5]", "result": "decreased considerably"}, {"measurement": "psoriatic lesion around the ankle (area)", "setting": "psoriatic lesions; [5]", "result": "smaller in area"}, {"measurement": "small red blotches around the ankle and up the leg", "setting": "psoriatic lesions; [5]", "result": "appeared the same"}, {"measurement": "expression of collagenase mRNA", "setting": "collagenase mRNA", "result": "increased"}, {"measurement": "clinical outcome (planned amputation)", "setting": "[1]; [6]", "result": "amputation was avoided"}, {"measurement": "wound covered by beefy red granulation tissue", "setting": "[1]; [6]", "result": "~75", "unit": "%"}, {"measurement": "wound appearance", "setting": "[1]; topical, eight hours per night, within six weeks", "result": "less yellow slough in the wound bed, the wound edges appeared less raised, and more granulation buds were present"}, {"measurement": "fibroblast cell proliferation", "setting": "human fibroblast cells; 200 ppm NO, vs control", "result": "increasing proliferation; also recorded: increase in fibroblast cell proliferation"}, {"measurement": "harmful effects on the fibroblast (morphology, cell count, capacity to proliferate, medium pH)", "setting": "human fibroblast cells; around 200 ppm gNO, 24 and 48 hours, 37° C.", "result": "did not have harmful effects"}, {"measurement": "morphological appearance and attachment capacity of treated vs control dermal fibroblasts", "setting": "human fibroblast cells; [7]", "result": "quite comparable"}, {"measurement": "toxic effect due to exposure", "setting": "human fibroblast cells; [7]", "result": "No toxic effect"}, {"measurement": "migration of fibroblasts", "setting": "[2]", "result": "does not appear to affect"}, {"measurement": "proliferation of fibroblasts in 3D matrix", "setting": "[2]", "result": "does not appear to interfere with the proliferation"}, {"measurement": "neutrophil concentration (inflammatory reaction) in wounds", "setting": "[3]; 200 ppm gNO for 24 hours, vs control group", "result": "lower level of neutrophil concentration"}, {"measurement": "wound closure / healing process (histology)", "setting": "[3]; 200 ppm gNO for 24 hours, vs control wounds", "result": "layer of granular tissue closing on the wound"}, {"measurement": "toxic effects (cellular debris) in wound tissue", "setting": "[3]; listed as gNO", "result": "No toxic effects"}, {"measurement": "toxic effects (cellular debris) in wound tissue", "setting": "[3]; listed as nitric oxide gas", "result": "no toxicity"}, {"measurement": "collagen mRNA expression", "setting": "collagen mRNA; fibroblasts exposed to 5 ppm of NO", "result": "increased collagen mRNA expression"}, {"measurement": "collagen expression", "setting": "collagen mRNA; high concentration (200 ppm) of exogenous nitric oxide, FIG. 6 left panel", "result": "possible inhibition of collagen expression"}, {"measurement": "attachment capacity", "setting": "human fibroblasts", "result": 70, "unit": "%"}, {"measurement": "tube formation vs air", "setting": "human endothelial cells", "result": "no significant difference"}]}]}
